Experimental data from EP4660196A1, “CRYSTAL FORM OF COMPOUND, PREPARATION METHOD THEREFOR AND USE THEREOF” (Felicamed Biotechnology Co., Ltd., priority 2023, dated 2024).
Where “and” joins values, the source holds several entries; their conditions need not be identical. Equal entries are not always repeated. Where two headings read alike, the source gives them in different places.

Tests used:
[1] = format: physicochemical; details: 37°C; for S: solubility: calculated as free form; for FC: crystal transfer: XRPD of solid; for pH: pH of filtrate
[2] = in vivo; parameters: species or system Sprague-Dawely rats; details: rat, po
From the text: Sprague-Dawely rats (SPF grade) used in this experiment were purchased from Zhejiang Charles River Experimental Animal Technology Co., Ltd. with the production license No. SCXK (Zhe) 2019-0001 and the animal qualification certificate No. 20220107Aazz0619000738 and 20220107Aazz0619000691. A body weight range of males was 206.6 g to 234.5 g, and a body weight range of females was 188.4 g to 205.9 g.
In this experiment, all animals were randomly divided into 5 groups (5 animals/sex/group), received the drug at 97 mg/kg, 174 mg/kg, 312 mg/kg, 559 mg/kg, and 1000 mg/kg, respectively, and received signal intragastric administration orally. […] All animals received administration according to their latest weighed body weight. The drug was stirred for at least 10 min before administration, and continuously stirred during administration until the administration of the sample at this concentration was completed. […]
All animals underwent a comprehensive physical examination by a veterinarian before administration. […] All surviving animals were weighed once on the day of random grouping (Day-1), Day 1 (before administration), Day 3, Day 5, Day 7, and Day 8; and their 24±1-hour food consumption was measured once on Day 1 (Day 1 to Day 2), Day 2 (Day 2 to Day 3), and Day 6 (Day 6 to Day 7). […]

[3] = for Carr index: (tapped density - bulk density) / tapped density; for Average angle of repose (°) / Average bulk density / Average tapped density: mean of three tests
Method: A method for testing the density and the tapped density included: (1) a certain mass of to-be-assessed sample was placed into a 5 mL measuring cylinder, and the volume at this moment was recorded. The bulk density was calculated by dividing the mass of the sample by the volume at this moment. (2) The measuring cylinder was slightly tapped 200 times, the final volume was recorded, and the tapped density was calculated by dividing the mass of the sample by the final volume. (3) Three parallel tests were conducted. A method for testing the angle of repose included: (1) a funnel was fixed vertically to a bottom surface, and the material was slowly placed into the funnel. (2) A well-proportioned cone of the material was formed on the bottom surface. The height and bottom surface diameter of the cone were measured. (3) Three parallel tests were conducted.
Angle of repose α = […], where h is the cone height, and D is the cone diameter.

[4] = Urine and fecal excretion after single intragastric administration; details: dog, po, 6 mg/kg
Method: The preparations were freshly prepared on the day of administration, and sampled for determination of preparation concentration.
Six Beagle dogs (half male and half female) were fasted overnight in metabolic cages the day before the experiment. Before administration, urine and feces of each animal were collected as baseline (0 h) samples. On the day of administration, Beagle dogs received single intragastric administration of the drug at 6 mg/kg. Four hours after administration, the animals resumed feeding and had free access to water during the experiment.
After urine collection is completed, the volume was measured and recorded. Part of the collected urine was taken, methanol was added to dilute the urine in a urine-to-methanol volume ratio of 4: 1 (v/v). After vortex mixing, the mixture was divided into 2 portions. After fecal samples at different time periods were collected, the food residues on the surface were removed and the feces were weighed. […] After the last sampling of the urine and feces excretion experimental group was completed, the metabolic cages were rinsed with 2000 mL of water: ethanol (1: 1, v: v) and the rinse solution of each cage was collected. After the rinse solution was thoroughly shaken, 1 mL was immediately taken, placed into a 1.5 mL EP tube, and stored in a -90°C to 60°C refrigerator together with the urine and feces homogenate until sample analysis.
The drug concentration in the excretion samples of the animal in each group at different time periods was detected by LC-MS/MS, and an excretion rate and a cumulative excretion rate in each time period were calculated.

[5] = Solid-state stability (XRPD, UPLC purity); details: for Crystal form Transform: XRPD; for Purity (area%): starting purity 99.82 (hydrochloride), 99.72 (free); for Area (%): UPLC main peak (#Peak 1, RRT 1.00)
[6] = DVS
Method: DVS isotherms were collected on an SMS (Surface Measurement Systems) DVS Intrinsic. Relative humidity at 25°C was calibrated using the deliquescence points of LiCl, Mg(NO3)2, and KCl. Table 9 DVS testing parameters

[7] = format: physicochemical; details: for S: solubility: 1440 min; for FC: crystal transfer: XRPD of solid; for pH: pH of filtrate
[8] = Mechanical stability (grinding, tableting at 350 MPa, XRPD); format: physicochemical
[9] = single values of three parallel tests

CC[S@@](=N)(=O)C[C@H]1CC[C@H](N(C)c2ncnc3[nH]ccc23)CC1 [Free crystal form A]
S: solubility ([1]; FaSSIF, 1 h, 60 min): 2.2 mg/mL | S: solubility ([1]; FaSSIF, 2 h, 120 min): 2.2 mg/mL | S: solubility ([1]; FaSSIF, 4 h, 240 min): 2.3 mg/mL | S: solubility ([1]; FaSSIF, 24 h, 1440 min): 2.4 mg/mL | S: solubility ([1]; H2O, 1 h, 60 min): 2.1 mg/mL | S: solubility ([1]; H2O, 2 h, 120 min): 2.1 mg/mL | S: solubility ([1]; H2O, 4 h, 240 min): 2.2 mg/mL | S: solubility ([1]; H2O, 24 h, 1440 min): 2.4 mg/mL | FC: crystal transfer ([1]; FaSSIF, 1 h): No | FC: crystal transfer ([1]; FaSSIF, 2 h): No | FC: crystal transfer ([1]; FaSSIF, 4 h): No | FC: crystal transfer ([1]; FaSSIF, 24 h): No | FC: crystal transfer ([1]; FeSSIF, 1 h): No | FC: crystal transfer ([1]; FeSSIF, 2 h): No | FC: crystal transfer ([1]; FeSSIF, 4 h): No | FC: crystal transfer ([1]; FeSSIF, 24 h): No | FC: crystal transfer ([1]; H2O, 1 h): No | FC: crystal transfer ([1]; H2O, 2 h): No | FC: crystal transfer ([1]; H2O, 4 h): No | FC: crystal transfer ([1]; H2O, 24 h): No | FC: crystal transfer ([1]; SGF, 1 h): No | FC: crystal transfer ([1]; SGF, 2 h): No | FC: crystal transfer ([1]; SGF, 4 h): No | FC: crystal transfer ([1]; SGF, 24 h): No | pH ([1]; FaSSIF, 1 h): 6.6 | pH ([1]; FaSSIF, 2 h): 6.6 | pH ([1]; FaSSIF, 4 h): 6.6 | pH ([1]; FaSSIF, 24 h): 6.6 | pH ([1]; FeSSIF, 1 h): 5.3 | pH ([1]; FeSSIF, 2 h): 5.3 | pH ([1]; FeSSIF, 4 h): 5.3 | pH ([1]; FeSSIF, 24 h): 5.3 | pH ([1]; H2O, 1 h): 6.7 | pH ([1]; H2O, 2 h): 6.6 | pH ([1]; H2O, 4 h): 6.7 | pH ([1]; H2O, 24 h): 7.3 | pH ([1]; SGF, 1 h): 5.1 | pH ([1]; SGF, 2 h): 5.2 | pH ([1]; SGF, 4 h): 5.2 | pH ([1]; SGF, 24 h): 5.2 | MTD at 168 h [2]: 174 mg/kg | Carr index [3]: 51% | Carr index ([3]; listed as free crystal form A): 51% | Average angle of repose (°) [3]: 47.1 ° | Average bulk density [3]: 0.11 g/mL | Average tapped density [3]: 0.23 g/mL | Average angle of repose (°) ([3]; listed as free crystal form A): 47.1 ° | Average bulk density ([3]; listed as free crystal form A): 0.11 g/mL | Average tapped density ([3]; listed as free crystal form A): 0.23 g/mL | Angle of repose (°) [3, 9]: 49.0 ° and 47.3 ° and 45.0 ° | Bulk density [3, 9]: 0.11 g/mL | Tapped density ([3]; tapped 200 times, single values of three parallel tests): 0.23 g/mL and 0.22 g/mL | dose excreted at 120 h ([4]; cage rinse solution): 4.87 ± 3.09% | dose excreted at 120 h ([4]; feces): 3.48 ± 0.663% | dose excreted at 120 h ([4]; urine and feces): 47.3 ± 9.62% | dose excreted at 120 h ([4]; urine, feces, cage rinse): 52.2% | dose excreted at 120 h ([4]; urine): 43.8 ± 9.97% | Crystal form Transform ([5]; 25°C/60% RH/4 weeks, open): No | Purity (area%) ([5]; 25°C/60% RH/4 weeks, open): 99.71 area% | Crystal form Transform ([5]; 40°C/75% RH/4 weeks, open): No | Purity (area%) ([5]; 40°C/75% RH/4 weeks, open): 99.72 area% | Crystal form Transform ([5]; 80°C/1 d, closed): No | Area (%) ([5]; 25°C/60% RH/4 weeks): 99.71% | Area (%) ([5]; 40°C/75% RH/4 weeks): 99.72% | Area (%) ([5]; 80°C/1 d): 99.71% | Hygroscopic weight gain (wt%) at 25°C/80% RH [6]: 0.39 wt% | Hygroscopic weight gain (wt%) at 25°C/80% RH ([6]; listed as free crystal form A): 0.39 wt% | S: solubility ([7]; Buffer (pH=4.5), room temperature, 24 h, calculated as free form): >9.1 mg/mL | FC: crystal transfer ([7]; Buffer (pH=2.0), 24 h): No | FC: crystal transfer ([7]; Buffer (pH=7.4), 24 h): No | S: solubility ([7]; buffer, pH 2, 1440 min): 6.2 mg/mL | S: solubility ([7]; buffer, pH 4.5, 1440 min): > 9.1 mg/mL | pH ([7]; Buffer (pH=2.0), room temperature, 24 h): 5.6 | pH ([7]; Buffer (pH=4.5), room temperature, 24 h): 5.0 | pH ([7]; Buffer (pH=7.4), room temperature, 24 h): 7.4 | Results of mechanical stability After grinding ([8]; manual grinding): The crystal form remains unchanged, but the crystallinity is slightly reduced | Results of mechanical stability After tableting ([8]; tablet press, 350 MPa): The crystal form remains unchanged, but the crystallinity is slightly reduced
